The structures appear in SMILES notation. Converted amounts (≈) assume the structure as drawn. The source made the active and inactive calls. No cut-off for these calls is given here. Where a SMILES comes first, the peptide text is derived from it. [ ]: non-standard residue; d: D form. The star is where a group is joined. Benzoyl(4-(biphenyl-4-yl)) = O=C(c1ccc(-c2ccc(-c3ccccc3)cc2)cc1)*; Linoleoyl = CCCCC/C=C\C/C=C\CCCCCCCC(=O)*; NMeL = CN[C@@H](CC(C)C)C(=O)O; NMeV = CN[C@H](C(=O)O)C(C)C; X1 = Nc1ccc(/C=C/C(=O)*)cc1; Orn = NCCC[C@H](N)C(=O)O; 2Abz = Nc1ccccc1C(=O)O

Data set [1] deals with Lipid bilayer. The experiment in a line: Binding affinity to bacterial membrane mimic POPC/POPG (7:3 w/w) SUVs assessed as blue shift in tryptophan emission maxima at 3 uM after 2 mins by spectrofluorimeter analysis.
In data set [2] the test system is Lipid bilayer. The experiment in a line: Binding affinity to mammalian membrane mimic POPC SUVs assessed as blue shift in tryptophan emission maxima at 3 uM after 2 mins by spectrofluorimeter analysis.
The nature of data set [3]: Induction of membrane permeabilization in POPC/POPG (7:3 w/w) LUVs assessed as graded leakage of encapsulated calcein dye at 41.01 ug/ml after 5 mins by spectrofluorimeter analysis.
Data set [4] is described as follows: Hemolytic activity against human erythrocytes assessed as hemoglobin release up to 500 ug/ml after 1 hr by ELISA. The class given is ADME, cell-based. The settings on record: erythrocyte. In general terms: ELISA stands for enzyme-linked immunosorbent assay.
The subject of data set [5] is Staphylococcus aureus. The experiment in a line: Antibacterial activity against methicillin-resistant Staphylococcus aureus ATCC 33591 after 18 hrs by CLSI microdilution broth assay. The class given is functional. The following applies: ATCC 33591, 18 h. (Dilution methods test growth across graded concentrations, often in twofold steps.)
The next data set has as its system Acinetobacter baumannii. Description: Antibacterial activity against Acinetobacter baumannii ATCC 19606 after 18 hrs by CLSI microdilution broth assay. The following applies: ATCC 19606, 18 h. The class given is functional.
A further data set concerns Bacillus subtilis. Description: Antibacterial activity against Bacillus subtilis ATCC 6633 after 18 hrs by CLSI microdilution broth assay. The class given is functional. The following applies: ATCC 6633, 18 h.
A further data set concerns Pseudomonas aeruginosa. Description: Antibacterial activity against Pseudomonas aeruginosa ATCC 25668 after 18 hrs by CLSI microdilution broth assay. The class given is functional. The following applies: ATCC 25668, 18 h.
Data set [6] relates to Staphylococcus aureus. Description: Antibacterial activity against Staphylococcus aureus ATCC 29213 after 18 hrs by CLSI microdilution broth assay. The class given is functional. The settings on record: ATCC 29213, 18 h.
The next data set deals with Escherichia coli. Description: Antibacterial activity against Escherichia coli ATCC 11775 after 18 hrs by CLSI microdilution broth assay. The class given is functional. The settings on record: ATCC 11775, 18 h.
The subject of data set [7] is Staphylococcus aureus. Description: Induction of membrane depolarization in methicillin-resistant Staphylococcus aureus ATCC 33591 at 12.5 ug/ml by DiSC3(5) dye by fluorimetric assay. The class given is functional.
Data set [8] is described as follows: Stability of the compound assessed as compound digestion at 100 ug/ml after 24 hrs by RP-HPLC analysis in presence of proteinase-K. The class given is ADME. The following applies: read-out: Drug degradation.
The nature of data set [9]: Stability of the compound assessed as compound digestion at 100 ug/ml after 10 hrs by RP-HPLC analysis in presence of proteinase-K. The settings on record: read-out: Drug degradation. The class given is ADME.
The subject of another data set is Aspergillus fumigatus. The experiment in a line: Antifungal activity against Aspergillus fumigatus assessed as growth inhibition up to 125 ug/ml by disk diffusion method. The class given is functional, organism-based. On the technique in general: In agar diffusion tests the substance spreads into inoculated agar from a disc or well.
A further data set deals with Candida albicans. The experiment in a line: Antifungal activity against Candida albicans assessed as growth inhibition up to 125 ug/ml by disk diffusion method. The class given is functional, organism-based.
In data set [10] the test system is Staphylococcus aureus. Description: Induction of morphological alterations in methicillin-resistant Staphylococcus aureus ATCC 33591 assessed as cell clustering and ruptured membrane at 5XMIC after 30 mins by scanning electron microscopy. The class given is functional, organism-based.
A short description of data set [11]: Binding affinity to gram-negative outer membrane LPS micelles by circular dichroism spectrophotometry.
Data set [12] relates to Staphylococcus aureus. The experiment in a line: Induction of membrane depolarization in methicillin-resistant Staphylococcus aureus ATCC 33591 at 7.5 ug/ml by DiSC3(5) dye by fluorimetric assay. The class given is functional.
The test system of data set [13] is Staphylococcus aureus. Description: Induction of membrane depolarization in methicillin-resistant Staphylococcus aureus ATCC 33591 by DiSC3(5) dye by fluorimetric assay. The class given is functional, organism-based.
The nature of data set [14]: Induction of membrane permeabilization in POPC/POPG (7:3 w/w) LUVs assessed as burst release of calcein dye at 5.68 ug/ml after 5 mins by spectrofluorimeter analysis.
The test system of data set [15] is Lipid bilayer. The experiment in a line: Binding affinity to mammalian membrane mimic POPC SUVs assessed as red shift in tryptophan emission maxima at 3 uM after 2 mins by spectrofluorimeter analysis.
The nature of data set [16]: Induction of membrane permeabilization in POPC/POPG (7:3 w/w) LUVs assessed as leakage of encapsulated calcein dye at 14.01 ug/ml after 5 mins by spectrofluorimeter analysis.
Data set [17] is described as follows: Hemolytic activity against human erythrocytes assessed as hemoglobin release at 500 ug/ml after 1 hr by ELISA. The settings on record: read-out: Activity. The class given is ADME, cell-based, Erythrocyte.
Data set [18] concerns Staphylococcus aureus. Description: Induction of morphological alterations in methicillin-resistant Staphylococcus aureus ATCC 33591 assessed as rough and damaged cell surface and formation of blebs and massive rupturing at 5XMIC after 30 mins by scanning electron microscopy. The class given is functional, organism-based.
Data set [19] has as its system Lipid bilayer. The experiment in a line: Binding affinity to bacterial membrane mimic PC:PG (7:3 w/w) LUVs by circular dichroism spectrophotometry.

By MIC is commonly meant the least concentration at which growth counts as inhibited. A low value points to inhibition by little substance. With `NCCC[C@H](NC(=O)c1ccccc1N)C(=O)N[C@@H](CCCN)C(=O)N[C@@H](Cc1c[nH]c2ccccc12)C(=O)N[C@@H](Cc1c[nH]c2ccccc12)C(N)=O` (H-[2Abz][Orn][Orn]WW-NH2), the Activity with Lipid bilayer [1] was 5 nm; in data set [3] it was 69.9%; in data set [4], “Non-toxic”; in the data set on Staphylococcus aureus [7], 8.9%. In addition, the Tryptophan emission maximum blue shift in the data set with Lipid bilayer [2] stood at 1 nm. For the same molecule, the MIC with Staphylococcus aureus [5] is 64 µg/mL (≈ 86.9 µM); against Acinetobacter baumannii, 64 µg/mL (≈ 86.9 µM); against Bacillus subtilis it was 64 µg/mL (≈ 86.9 µM); against Pseudomonas aeruginosa, 16 µg/mL (≈ 21.7 µM); with Staphylococcus aureus [6], 64 µg/mL (≈ 86.9 µM); with Escherichia coli, 64 µg/mL (≈ 86.9 µM).

With `CN[C@@H](CC(C)C)C(=O)N[C@@H](CCCN)C(=O)N[C@@H](CCCN)C(=O)N[C@@H](Cc1c[nH]c2ccccc12)C(=O)N[C@@H](Cc1c[nH]c2ccccc12)C(N)=O` (H-[NMeL][Orn][Orn]WW-NH2), the Activity is 4 nm with Lipid bilayer [1], “Non-toxic” in data set [4] and 18.9% with Staphylococcus aureus [7]. In addition, the Tryptophan emission maximum blue shift in the data set on Lipid bilayer [2] turned out to be 1 nm. For the same molecule, the MIC in the data set on Staphylococcus aureus [5] is 256 µg/mL (≈ 344 µM); in the data set with Acinetobacter baumannii it was 128 µg/mL (≈ 172 µM); against Bacillus subtilis, 64 µg/mL (≈ 85.9 µM); in the data set on Pseudomonas aeruginosa, 128 µg/mL (≈ 172 µM); against Staphylococcus aureus [6], 128 µg/mL (≈ 172 µM); with Escherichia coli, 64 µg/mL (≈ 85.9 µM).

As for `CN[C@H](C(=O)N[C@@H](CCCN)C(=O)N[C@@H](CCCN)C(=O)N[C@@H](Cc1c[nH]c2ccccc12)C(=O)N[C@@H](Cc1c[nH]c2ccccc12)C(N)=O)C(C)C` (H-[NMeV][Orn][Orn]WW-NH2), the Activity in the data set on Lipid bilayer [1] is 3 nm; in [3], 41.8%; in data set [4], “Non-toxic”; with Staphylococcus aureus [7], 17.2%. Besides, the Tryptophan emission maximum blue shift in the data set on Lipid bilayer [2] is 0 nm. Besides, the MIC with Staphylococcus aureus [5] was 256 µg/mL (≈ 350 µM); with Acinetobacter baumannii, 64 µg/mL (≈ 87.6 µM); with Bacillus subtilis, 128 µg/mL (≈ 175 µM); against Pseudomonas aeruginosa it was 128 µg/mL (≈ 175 µM); in the data set with Staphylococcus aureus [6] it was 128 µg/mL (≈ 175 µM); against Escherichia coli, 256 µg/mL (≈ 350 µM).

For `NCCC[C@H](NC(=O)[C@@H](N)CCCN)C(=O)N[C@@H](Cc1c[nH]c2ccccc12)C(=O)N[C@@H](Cc1c[nH]c2ccccc12)C(N)=O` (H-[Orn][Orn]WW-NH2), the figures for the Activity (with Lipid bilayer [1]; in data set [4]; in the data set on Staphylococcus aureus [7]) were 3 nm, “Non-toxic” and 5.6%, respectively. The Tryptophan emission maximum blue shift in the data set on Lipid bilayer [2] was determined as 2 nm. The MIC in the data set on Acinetobacter baumannii is 512 µg/mL (≈ 829 µM); in the data set with Bacillus subtilis, 512 µg/mL (≈ 829 µM); with Pseudomonas aeruginosa it was 256 µg/mL (≈ 414 µM); in the data set with Staphylococcus aureus [6] it was 128 µg/mL (≈ 207 µM); in the data set on Escherichia coli it was 512 µg/mL (≈ 829 µM).

For `CCCCC/C=C\C/C=C\CCCCCCCC(=O)N[C@@H](CCCN)C(=O)N[C@@H](CCCN)C(=O)N[C@@H](Cc1c[nH]c2ccccc12)C(=O)N[C@@H](Cc1c[nH]c2ccccc12)C(N)=O` (Linoleoyl-[Orn][Orn]WW-NH2), the Activity in the data set on Lipid bilayer [1] was 10 nm; in [4], “Non-toxic”; with Staphylococcus aureus [7], 100%; in the data set on Staphylococcus aureus [12] it was 84%; with Staphylococcus aureus [13], “Dose-dependent effect”; in data set [14], 72.3%. For the same molecule, the Tryptophan emission maximum blue shift in the data set with Lipid bilayer [2] is 2 nm. Moreover, in data set [8], the metabolised at 24 h, 100 ug/ml came out at 36%. Besides, in data set [9], the metabolised at 10 h, 100 ug/ml stood at 17%. For the same molecule, the “growth inhibition (GI)” value with Aspergillus fumigatus and with Candida albicans was “inactive” each time. Moreover, the minimal inhibitory concentration (MIC) against Staphylococcus aureus [5] amounted to 4 µg/mL (≈ 4.54 µM); in the data set on Acinetobacter baumannii, 2 µg/mL (≈ 2.27 µM); in the data set with Bacillus subtilis, 4 µg/mL (≈ 4.54 µM); against Pseudomonas aeruginosa, 2 µg/mL (≈ 2.27 µM); in the data set with Staphylococcus aureus [6], 2 µg/mL (≈ 2.27 µM); in the data set on Escherichia coli, 2 µg/mL (≈ 2.27 µM). Also, the result (with Staphylococcus aureus [10]; in data set [11]) was Active.

In the case of `NCCC[C@H](NC(=O)/C=C/c1ccc(N)cc1)C(=O)N[C@@H](CCCN)C(=O)N[C@@H](Cc1c[nH]c2ccccc12)C(=O)N[C@@H](Cc1c[nH]c2ccccc12)C(N)=O` (X1-[Orn][Orn]WW-NH2), the Activity in the data set with Lipid bilayer [1] is 2 nm; in the data set with Lipid bilayer [15] it was 2 nm; in data set [4], “Non-toxic”; in the data set with Staphylococcus aureus [7], 16.8%; in data set [16], 68.3%; in [14], 58.5%. For the same molecule, the MIC with Staphylococcus aureus [5] came to 128 µg/mL (≈ 168 µM); in the data set on Acinetobacter baumannii, 64 µg/mL (≈ 83.9 µM); with Bacillus subtilis it was 32 µg/mL (≈ 41.9 µM); against Pseudomonas aeruginosa, 16 µg/mL (≈ 21 µM); against Staphylococcus aureus [6] it was 64 µg/mL (≈ 83.9 µM); against Escherichia coli, 32 µg/mL (≈ 41.9 µM).

In the case of `NCCC[C@H](NC(=O)c1ccc(-c2ccc(-c3ccccc3)cc2)cc1)C(=O)N[C@@H](CCCN)C(=O)N[C@@H](Cc1c[nH]c2ccccc12)C(=O)N[C@@H](Cc1c[nH]c2ccccc12)C(N)=O` ({Benzoyl(4-(biphenyl-4-yl))}-[Orn][Orn]WW-NH2), the Activity was 30 nm in the data set on Lipid bilayer [1], 81% with Staphylococcus aureus [12], “Dose-dependent effect” in the data set on Staphylococcus aureus [13] and 76.4% in data set [14]. The Tryptophan emission maximum blue shift in the data set with Lipid bilayer [2] was 2 nm. Moreover, the metabolised at 10 h, 100 ug/ml in [9] worked out at 14%. Moreover, in data set [17], the hemolysis at 1 h, 500 ug/ml is 50%. Further, the “growth inhibition (GI)” value in the data set with Aspergillus fumigatus and in the data set on Candida albicans was “inactive” throughout. Moreover, the MIC with Staphylococcus aureus [5] was 8 µg/mL (≈ 9.15 µM); with Acinetobacter baumannii, 2 µg/mL (≈ 2.29 µM); in the data set on Bacillus subtilis it was 2 µg/mL (≈ 2.29 µM); with Pseudomonas aeruginosa it was 4 µg/mL (≈ 4.58 µM); against Staphylococcus aureus [6] it was 2 µg/mL (≈ 2.29 µM); in the data set on Escherichia coli it was 2 µg/mL (≈ 2.29 µM). For the same molecule, the outcome in the data set on Staphylococcus aureus [18] and with Lipid bilayer [19] was Active.

Consider `CN(C)[C@@H]1C(O)=C(C(N)=O)C(=O)[C@@]2(O)C(O)=C3C(=O)c4c(O)cccc4[C@@](C)(O)[C@H]3C[C@@H]12` [TETRACYCLINE], for which the MIC in the data set on Staphylococcus aureus [5] was greater than 50 µg/mL; in the data set with Pseudomonas aeruginosa it was 0.3 µg/mL (≈ 0.675 µM); with Staphylococcus aureus [6] it was 0.3 µg/mL (≈ 0.675 µM); in the data set with Escherichia coli, 0.3 µg/mL (≈ 0.675 µM).
